In patent US11084824B2, “Pyrazolopyrimidine derivatives, preparation method thereof, and pharmaceutical composition for use in preventing or treating cancer, autoimmune disease and brain disease containing the same as an active ingredient” (Korea Research Institute of Chemical Technology, priority 2017, dated 2021):

How the values were obtained:
[1] = tested on: human peripheral blood mononuclear cells (human PBMC); assay: TNFa inhibition in human PBMC monocytes (ELISA); format: cell-based; details: TNFa concentration in culture medium by ELISA, HSA/anti-HSA antibody coated plate, overnight culture, read-out: hPBMC IC50
Method: 20 ug/ml of human serum albumin (HAS) solution was prepared and distributed in a 96-well plate (200 μl/well). Reaction was induced at 4° C. for overnight and then 10% FBS solution was treated thereto (200 μl/well), followed by elimination. Lastly, 10 ug/ml of anti-HSA antibody was treated thereto (200 μl/well) for 1 hour, followed by elimination. An appropriate number of monocytes of human peripheral blood mononuclear cells (human PBMC) were distributed in the prepared 96-well plate. The target compounds were treated thereto at different concentration via serial dilution method, followed by culture for overnight. IC50 values of the compounds were determined by confirming the TNFa inhibition activity of the compounds between the maximum concentration (positive control) and the minimum concentration (negative control) of TNFa, and the results are shown in Table 8.

[2] = biological target: Bruton's tyrosine kinase (BTK) (Homo sapiens (Human), UniProt Q06187); assay: BTK enzyme inhibition assay (Cisbio HTRF kit); format: biochemical; details: 30 minutes reaction, fluorescence 665 nm/620 nm
Method: BTK enzyme evaluation with each compound of examples of the invention was performed by using BTK enzyme inhibition diagnosis kit (Cisbio, Codolet, France). […] Then, EDTA (ethylenediaminetetraacetic acid) was added thereto in order to terminate the reaction. At this time, the EDTA solution contained curopium-containing antibody (antiphosphoresidue antibody) and straptavidin-XL665 (SA-XL665, Cisbio). After incubation for 1 hour, fluorescence was measured. The emission values of 665 nm and 620 nm excited at 337 nm were measured with Envision reader. IC50 values were determined using GraphPad prism (version 5). Herein, the curve indicates a nonlinear regression model, which was determined by logarithmic functions and reaction values.

TMD8 cells = assay: TMD8 cell growth inhibition (WST-1, 72 hours); format: cell-based; details: Homo sapiens, TMD8 ABC type DLBCL cell line, WST-1, absorbance 450 nm
Method: TDM-8 cells, the ABC (activated B-cell) type DLBCL (diffuse large B cell lymphoma) cell line sensitive to BTK signaling, were seeded in a 96-well plate at 30% confluency. Then, the compounds of the invention were treated thereto at different concentrations. 72 hours later, WST-1 reagent was added thereto. One hour later, absorbance was measured at 450 nm by using a spectramax spectrophotometer.

Sequence of Bruton's tyrosine kinase (BTK) (Q06187 whole entry): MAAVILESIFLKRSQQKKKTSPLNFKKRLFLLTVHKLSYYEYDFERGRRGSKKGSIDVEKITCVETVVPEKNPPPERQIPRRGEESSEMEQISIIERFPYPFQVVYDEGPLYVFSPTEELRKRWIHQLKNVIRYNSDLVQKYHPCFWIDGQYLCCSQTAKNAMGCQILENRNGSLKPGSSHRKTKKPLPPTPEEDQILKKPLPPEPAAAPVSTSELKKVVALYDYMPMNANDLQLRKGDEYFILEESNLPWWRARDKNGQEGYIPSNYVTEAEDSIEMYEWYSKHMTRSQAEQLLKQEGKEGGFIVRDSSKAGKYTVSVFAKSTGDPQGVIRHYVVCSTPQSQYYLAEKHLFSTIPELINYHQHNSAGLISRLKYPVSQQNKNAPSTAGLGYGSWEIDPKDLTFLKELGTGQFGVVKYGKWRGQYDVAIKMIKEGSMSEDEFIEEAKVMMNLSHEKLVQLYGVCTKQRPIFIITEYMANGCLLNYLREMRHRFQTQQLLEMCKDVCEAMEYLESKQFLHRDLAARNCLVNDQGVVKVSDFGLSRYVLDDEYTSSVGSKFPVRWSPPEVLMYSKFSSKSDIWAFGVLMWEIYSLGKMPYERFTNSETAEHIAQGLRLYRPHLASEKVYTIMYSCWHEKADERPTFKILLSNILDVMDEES

Compound	IC50 [1] [nM]	IC50 [2] [nM]	IC50 (TMD8 cells) [nM]
CC(=O)N1CCc2ccc(Nc3ncc4c(Nc5c(C)cccc5C)nn(C)c4n3)cc2C1 [Example 1, 1-(7-(3-(2,6-dimethylphenylamino)-1-methyl-1H-pyrazolo[3,4-d]pyrimidine-6-ylamino)-3,4-dihydroisoquinoline-2(1H)-yl)ethaneone]	35	0.6	41.1
Cc1cccc(C)c1Nc1nn(C)c2nc(Nc3ccc4c(c3)CNCC4)ncc12 [Example 2, N^3-(2,6-dimethylphenyl)-1-methyl-N^6-(1,2,3,4-tetrahydroisoquinoline-7-yl)-1H-pyrazolo[3,4-d]pyrimidine-3,6-diamine]	7.7	–	30.1
COc1cc2c(cc1Nc1ncc3c(Nc4c(C)cccc4C)nn(C)c3n1)CCNC2 [Example 4, N^1-(2,6-dimethylphenyl)-N^6-(7-methoxy-1,2,3,4-tetrahydroisoquinoline-6-yl)-1-methyl-1H-pyrazolo[3,4-d]pyrimidine-3,6-diamine]	209	100	572
Cc1cccc(C)c1Nc1nn(C)c2nc(Nc3ccc4c(c3)CCN(C(=O)C(F)(F)F)C4)ncc12 [Example 6, 1-(6-(3-(2,6-dimethylphenylamino)-1-methyl-1H-pyrazolo[3,4-d]pyrimidine-6-ylamino)-3,4-dihydroisoquinoline-2(1H)-yl)-2,2,2-trifluoroethaneone]	113	10	159
Cc1cccc(C)c1Nc1nn(C)c2nc(Nc3ccc4c(c3)CCNC4)ncc12 [Example 7, N^3-(2,6-dimethylphenyl)-1-methyl-N^6-(1,2,3,4-tetrahydroisoquinoline-6-yl)-1H-pyrazolo[3,4-d]pyrimidine-3,6-diamine]	20	0.8	46
CC(=O)N1CCc2cc(Nc3ncc4c(Nc5c(C)cccc5C)nn(C)c4n3)ccc2C1 [Example 8, 1-(6-(3-(2,6-dimethylphenylamino)-1-methyl-1H-pyrazolo[3,4-d]pyrimidine-6-ylamino)-3,4-dihydroisoquinoline-2(1H)-yl)ethaneone]	4.8	1	93
Cn1nc(Nc2ccccc2)c2cnc(Nc3ccc4c(c3)CNCC4)nc21 [Example 10, 1-methyl-N^3-phenyl-N^6-(1,2,3,4-tetrahydroisoquinoline-7-yl)-1H-pyrazolo[3,4-d]pyrimidine-3,6-diamine]	202	–	–
Cn1nc(Nc2c(Cl)cccc2Cl)c2cnc(Nc3ccc4c(c3)CNCC4)nc21 [Example 12, N^3-(2,6-dichlorophenyl)-1-methyl-N^6 (1,2,3,4-tetrahydroisoquinoline-7-yl)-1H-pyrazolo[3,4-d]pyrimidine-3,6-diamine]	2.6	3.75	89
CC(=O)N1CCc2ccc(Nc3ncc4c(Nc5c(Cl)cccc5Cl)nn(C)c4n3)cc2C1 [Example 13, 1-(7-(3-(2,6-dichlorophenylamino)-1-methyl-1H-pyrazolo[3,4-d]pyrimidine-6-ylamino)-3,4-dihydroisoquinoline-2(1H)-yl)ethaneone]	5.5	3	118
C=CC(=O)N1CCc2ccc(Nc3ncc4c(Nc5c(C)cccc5C)nn(C)c4n3)cc2C1 [Example 14, 1-(7-(3-(2,6-dimethylphenylamino)-1-methyl-1H-pyrazolo[3,4-d]pyrimidine-6-ylamino)-3,4-dihydroisoquinoline-2(1H)-yl)prop-2-en-1-one]	31	2	32
Cn1nc(Nc2c(Cl)cccc2Cl)c2cnc(Nc3ccc4c(c3)CCNC4)nc21 [Example 15, N^3-(2,6-dichlorophenyl)-1-methyl-N^6-(1,2,3,4-tetrahydroisoquinoline-6-yl)-1H-pyrazolo[3,4-d]pyrimidine-3,6-diamine]	1.3	–	41
CC(=O)N1CCc2cc(Nc3ncc4c(Nc5c(Cl)cccc5Cl)nn(C)c4n3)ccc2C1 [Example 16, 1-(6-(3-(2,6-dichlorophenylamino)-1-methyl-1H-pyrazolo[3,4-d]pyrimidine-6-ylamino)-3,4-dihydroisoquinoline-2(1H)-yl)ethaneone]	3.2	3	61
Cc1ccc(NC(=O)c2cccc(C(F)(F)F)c2)cc1Nc1nn(C)c2nc(Nc3ccc4c(c3)C(C)N(C)CC4)ncc12 (stereo not drawn) [Example 64, N-(3-((6-((1,2-dimethyl-1,2,3,4-tetrahydroisoquinolin-7-yl)amino)-1-methyl-1H-pyrazolo[3,4-d]pyrimidine-3-yl)amino)-4-methylphenyl)-3-(trifluoromethyl)benzamide]	–	5.22	10.1
Cc1cccc(C)c1Nc1nn(C)c2nc(Nc3ccc4c(c3)C(C(C)C)N(C)CC4)ncc12 (stereo not drawn) [Example 65, N3-(2,6-dimethylphenyl)-N 6-(1-isopropyl-2-methyl-1,2,3,4-tetrahydroisoquinoline-7-yl)-1-methyl-1H-pyrazolo[3,4-d]pyrimidine-3,6-diamine]	–	7.74	274
